Test results as given in US20160200789A1, “IL4 CONJUGATED TO ANTIBODIES AGAINST EXTRACELLULAR MATRIX COMPONENTS” (PHILOGEN S.P.A., priority 2013, published 2016).

Tests used:
[1] = tested on: tumour neovascular structures in murine F9, CT26 and A20 tumours; assay: Immunofluorescence on untreated tumour sections; set-up: species or system mouse; details: biotinylated protein on F9, CT26 and A20 tumour sections
Description: For detection streptavidin-Alexa Fluor 488 and anti-rat-Alexa Fluor 594 (Invitrogen) were used. Slides were mounted with fluorescent mounting medium (Dako) and analyzed with an Axioskop2 mot plus microscope (Zeiss).

A20 lymphoma = assay: Therapy studies in A20 tumour-bearing mice; details: A20, F8-IL4 vs KSF-IL4 study
Description: (§1) Data represent mean tumour volumes (±SEM), n=5 mice per group. […] Data represent mean tumour volumes (±SEM), n=5 mice per group.
Differences in tumor volume, % ID/g and Tumor-to-blood ratio between therapeutic groups were compared using Graphpad Prism's repeated measures (mixed model) ANOVA analysis.
For this, as well as the other experiments described below, F9 teratocarcinoma (CRL-1720; ATCC, Molsheim Cedex, France), CT26 colon carcinoma (CRL-2638; ATCC, Molsheim Cedex, France) and A20 lymphoma (TIB-208; ATCC, Molsheim Cedex, France) were grown according to the supplier's protocol and tumour cells implanted subcutaneously in the flank using 25×10^6 cells (F9), 2×10^6 cells (CT26) or 8×10^6 cells (A20). F9 teratocarcinoma cells were implanted into 129/SvEv mice (Charles River, Sulzfeld, Germany), CT26 colon carcinoma cells were implanted into Balb/c mice (Elevage Janvier, Le Genest-St-Isle, France) and A20 lymphoma cells were implanted into Balb/c mice (Elevage Janvier, Le Genest-St-Isle, France). Mice were sacrificed when tumour volumes reached a maximum of 2000 mm^3.

F9 teratocarcinoma [2] = assay: Quantitative biodistribution in F9 tumour-bearing mice; format: in vivo, mouse; details: 15 μg radioiodinated protein i.v., 24 hours
Protocol: The in vivo targeting performance was assessed by quantitative biodistribution where 15 μg of radioiodinated fusion protein was injected i.v. into the lateral tail vein of immunocompetent 11-12 week old female Sv129Ev mice (obtained from Charles River [Germany]), bearing sub-cutaneously grafted F9 tumours (for labelling protocol, see (Pasche et al. 2011)). Mice were sacrificed 24 hours after injection, organs were excised, weighed and radioactivity was measured using a Packard Cobra γ counter.

CTLL2 cells = assay: CTLL2 cell proliferation bioactivity assay; format: cell-based; details: 24 h; for EC50: CTLL2 cells, 20000 cells/well
Protocol: The biological activity of murine IL4 was determined by its ability to stimulate the proliferation of CTLL2 cells. […] After incubation at 37° C. for 24 h, cell proliferation was determined with Cell Titer Aqueous One Solution (Promega).

[3] = tested on: endometriotic lesions in Balb/c mice; assay: Endometriosis model in Balb/c mice; format: in vivo, mouse; details: 200 μg/mouse i.v. days 1, 4, 7; day 15; vs PBS
Protocol: Endometriosis was induced in sixty eight-week old female Balb/c mice according to the protocol described by Somigliana et al. (1999).
One day after the implantation of endometrial tissue, pairs of mice (who received tissue from the same donor) were treated either with intravenous (i.v.) injections of F8-murine IL4 (200 μg/mouse; SEQ ID NO: 21) or PBS (group 1); or with i.v. injections of KSF-murine IL4 (200 μg/mouse; SEQ ID NO: 44) or PBS (group 2). The same treatment was repeated at days 4 and 7. Mice were sacrificed at day 15.

[4] = target: T1, EDA domain of fibronectin (Homo sapiens, UniProt P02751); assay: Surface plasmon analysis (BIAcore) on EDA antigen-coated sensor chip; format: binding
T1 construct: surface plasmon analysis (BIAcore) on an EDA antigen-coated sensor chip
T1 sequence (P02751 1727-1814 limits assumed): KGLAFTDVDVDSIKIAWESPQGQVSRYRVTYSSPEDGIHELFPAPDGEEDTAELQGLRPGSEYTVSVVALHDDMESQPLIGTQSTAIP
Description: The fusion protein was expressed and purified to homogeneity as described for F8-IL4 above.

Fibrosarcoma Wehi-164 = assay: Therapy of Wehi-164 fibrosarcoma-bearing mice; format: in vivo, mouse; details: 4 cycles i.v. every 48 h, equimolar doses
Protocol: Fibrosarcoma Wehi-164 exponentially growing cells were harvested, repeatedly washed and re-suspended in serum-free medium prior to injection. The tumor cells were injected subcutaneously (5×10^6) in the right flank of Balb/c mice. Tumor weights (mg=mm^3) were calculated as follows: (length [mm]×width^2 [mm^2])/2.
Treatment started when tumors reached approximately 100 mg. Mice received 4 cycles of therapy, every 48 h starting from day 5 after tumor cell injection. L19-IL4 (SEQ ID NO:64) was administered i.v. at the dose of 130 μg/mouse; equimolar amounts of KSF-IL4 (130 μg/mouse) (SEQ ID NO:44), KSF-IL10 (150 μg/mouse) (SEQ ID NO:65) and L19-IL10 (150 μg/mouse) (SEQ ID NO:66) were administered. Control mice received sterile vehicle solution (PBS). The results are shown in FIG. 16 (mean tumour weight over time). The number of mice in each treatment group was 3-4.

CT26 colon carcinoma = assay: Therapy studies in CT26 tumour-bearing mice
Description: as §1
In the description of the below experiments, data are expressed as the mean (±SEM). Differences in tumor volume, % ID/g and Tumor-to-blood ratio between therapeutic groups were compared using Graphpad Prism's repeated measures (mixed model) ANOVA analysis.
Mice were sacrificed when tumour volumes reached a maximum of 2000 mm^3.
In order to study a second immunocompetent mouse model of cancer, the inventors focused on Balb/c mice (obtained from Elevage Janvier [France]) bearing subcutaneous CT26 tumours of colorectal origin.

F9 teratocarcinoma [5] = assay: Therapy studies in F9 teratocarcinoma-bearing mice; format: in vivo, mouse; details: mouse, in vivo
Protocol: In a dose finding study, F9 tumour-bearing mice were randomly grouped (n=5) and injected intravenously (i.v.) into the lateral tail vein when tumours were clearly palpable. […] The therapeutic antibodies were all dissolved in phosphate buffered saline (PBS) and this buffer was also used in the negative control treatment groups. The mice were monitored daily and tumour volume was measured with a calliper (volume=length×width^2×0.5).

F9 teratocarcinoma [6] = assay: Biodistribution of F8-hIL4 and F8-hIL4-N284Q in F9 tumour-bearing mice; format: in vivo, mouse; details: 10 μg radioiodinated antibody i.v., 24 hours
Protocol: 11-12 weeks old female 129/SvEv mice were obtained from Charles River (Sulzfeld, Germany). Tumor cells were implanted subcutaneously in the flank of the mice using 25×10^6 cells.
The in vivo targeting performance of F8-hIL4, and its unglycosylated variant F8-hIL4-N284Q were evaluated in quantitative biodistribution studies. The antibodies were radioiodinated using […] and Chloramine T hydrate according to the protocol of Pasche et al. 2011. 10 μg of each radioiodiated antibody were injected into the lateral tail vein of the mice. Injected mice were sacrificed 24 hours after injection. Organs were then excised and radioactivity was counted in Cobra gamma counter (Packard, Meriden, Conn.).

Q: Which “recognition of tumour neovascular structures” value [1] does the source give for “KSF-IL4: antibody KSF (specific to hen egg lysozyme, negative control) in diabody format fused to murine interleukin 4 [reference compound]” here?
A: Its value is “not”.

Q: And the “statistical significance, tumour volume vs PBS” value (A20 lymphoma)?
A: Its value is “not statistically significant”.

Q: And the “accumulation at the tumour site (% ID/g)” value (F9 teratocarcinoma [2])?
A: Its value is “not observed”.

Q: And the EC50 (CTLL2 cells)?
A: Its EC50 is 0.02 nM.

Q: What about the biological cytokine activity (CTLL2 cells; CTLL2 proliferation) of the same molecule?
A: The biological cytokine activity was “comparable to that of recombinant murine IL4”.

Q: And the “number of the endometriotic lesions” value [3]?
A: The value was “did not have a significant effect”.

Q: What about the “volume of the endometriotic lesions” value [3] of the same molecule?
A: The value was “did not have a significant effect”.

Q: And the “affinity for the cognate antigen” value [4]?
A: The value was “retained a high-affinity for the cognate antigen”.

Q: What about the “therapeutic activity (tumour weight)” value (Fibrosarcoma Wehi-164) of the same molecule?
A: The value was “do not promote any significant therapeutic activity”.

Q: What about the therapeutic performance (CT26 colon carcinoma; 90 μg i.v. every 48 h) of the same molecule?
A: Its therapeutic performance is “not better than saline”.

Q: What about the “statistical significance, tumour volume vs PBS” value (CT26 colon carcinoma; CT26, F8-IL4 vs KSF-IL4 study) of the same molecule?
A: Its value is “not statistically significant”.

Q: “KSF-IL10: KSF antibody (hen egg lysozyme) conjugated to IL10; untargeted IL10” was tested. Which “therapeutic activity (tumour weight)” value (Fibrosarcoma Wehi-164) did it give?
A: The value was “do not promote any significant therapeutic activity”.

Q: How did the EC50 (CTLL2 cells) turn out when “recombinant IL4: recombinant murine IL4 (eBioscience)” was run?
A: The EC50 was 0.028 nM.

B1: F8-IL12: IL12-based immunocytokine: murine IL12 fused to single chain F8 diabody (protein)
chain: MWELEKDVYVVEVDWTPDAPGETVNLTCDTPEEDDITWTSDQRHGVIGSGKTLTITVKEFLDAGQYTCHKGGETLSHSHLLLHKKENGIWSTEILKNFKNKTFLKCEAPNYSGRFTCSWLVQRNMDLKFNIKSSSSSPDSRAVTCGMASLSAEKVTLDQRDYEKYSVSCQEDVTCPTAEETLPIELALEARQQNKYENYSTSFFIRDIIKPDPPKNLQMKPLKNSQVEVSWEYPDSWSTPHSYFSLKFFVRIQRKKEKMKETEEGCNQKGAFLVEKTSTEVQCKGGNVCVQAQDRYYNSSCSKWACVPCRVRSGGGGSGGGGSGGGGSRVIPVSGPARCLSQSRNLLKTTDDMVKTAREKLKHYSCTAEDIDHEDITRDQTSTLKTCLPLELHKNESCLATRETSSTTRGSCLPPQKTSLMMTLCLGSIYEDLKMYQTEFQAINAALQNHNHQQIILDKGMLVAIDELMQSLNHNGETLRQKPPVGEADPYRVKMKLCILLHAFSTRVVTINRVMGYLSSAGSADGGEVQLLESGGGLVQPGGSLRLSCAASGFTFSLFTMSWVRQAPGKGLEWVSAISGSGGSTYYADSVKGRFTISRDNSKNTLYLQMNSLRAEDTAVYYCAKSTHLYLFDYWGQGTLVTVSSGGSGGEIVLTQSPGTLSLSPGERATLSCRASQSVSMPFLAWYQQKPGQAPRLLIYGASSRATGIPDRFSGSGSGTDFTLTISRLEPEDFAVYYCQQMRGRPPTFGQGTKVEIKSSSSGSSSSGSSSSGEVQLLESGGGLVQPGGSLRLSCAASGFTFSLFTMSWVRQAPGKGLEWVSAISGSGGSTYYADSVKGRFTISRDNSKNTLYLQMNSLRAEDTAVYYCAKSTHLYLFDYWGQGTLVTVSSGGSGGEIVLTQSPGTLSLSPGERATLSCRASQSVSMPFLAWYQQKPGQAPRLLIYGASSRATGIPDRFSGSGSGTDFTLTISRLEPEDFAVYYCQQMRGRPPTFGQGTKVEIK
modifications: Synthetic sequence Amino acid sequence of (murine)IL12-F8-F8 of PCT/EP2014/053998
notes: IL12-based immunocytokine: murine IL12 fused to single chain F8 diabody
Q: For B1, which single-agent therapeutic activity (F9 teratocarcinoma [5]) is on record?
A: Its single-agent therapeutic activity is “potent single-agent therapeutic activity”.

B2: F8-hIL4: F8 diabody fused to human IL4, glycosylated (protein)
chain: EVQLLESGGGLVQPGGSLRLSCAASGFTFSLFTMSWVRQAPGKGLEWVSAISGSGGSTYYADSVKGRFTISRDNSKNTLYLQMNSLRAEDTAVYYCAKSTHLYLFDYWGQGTLVTVSSGGSGGEIVLTQSPGTLSLSPGERATLSCRASQSVSMPFLAWYQQKPGQAPRLLIYGASSRATGIPDRFSGSGSGTDFTLTISRLEPEDFAVYYCQQMRGRPPTFGQGTKVEIKSSSSGSSSSGSSSSGHKCDITLQEIIKTLNSLTEQKTLCTELTVTDIFAASKNTTEKETFCRAATVLRQFYSHHEKDTRCLGATAQQFHRHKQLIRFLKRLDRNLWGLAGLNSCPVKEANQSTLENFLERLKTIMREKYSKCSS
modifications: Synthetic sequence Amino acid sequence of F8 - (human) IL4 of PCT/EP2014/053998
notes: F8 diabody fused to human IL4, glycosylated
Q: Which “accumulation at the tumor site (% ID/g)” value (F9 teratocarcinoma [6]) does the source give for B2 here?
A: The value was “comparable preferential accumulation at the tumor site”.

B3: F8-hIL4-N284Q: unglycosylated F8-human IL4 mutant, asparagine 284 substituted with glutamine (protein)
chain: EVQLLESGGGLVQPGGSLRLSCAASGFTFSLFTMSWVRQAPGKGLEWVSAISGSGGSTYYADSVKGRFTISRDNSKNTLYLQMNSLRAEDTAVYYCAKSTHLYLFDYWGQGTLVTVSSGGSGGEIVLTQSPGTLSLSPGERATLSCRASQSVSMPFLAWYQQKPGQAPRLLIYGASSRATGIPDRFSGSGSGTDFTLTISRLEPEDFAVYYCQQMRGRPPTFGQGTKVEIKSSSSGSSSSGSSSSGHKCDITLQEIIKTLNSLTEQKTLCTELTVTDIFAASKQTTEKETFCRAATVLRQFYSHHEKDTRCLGATAQQFHRHKQLIRFLKRLDRNLWGLAGLNSCPVKEANQSTLENFLERLKTIMREKYSKCSS
modifications: Synthetic sequence Amino acid sequence of F8 - (human) IL4 N284Q mutant of PCT/EP2014/053998
notes: unglycosylated F8-human IL4 mutant, asparagine 284 substituted with glutamine
Q: B3 was tested. Which “accumulation at the tumor site (% ID/g)” value (F9 teratocarcinoma [6]) did it give?
A: The value was “comparable preferential accumulation at the tumor site”.

B4: L19-IL4: L19 diabody (anti-EDB of fibronectin) fused to murine IL4 (protein)
chain: EVQLLESGGGLVQPGGSLRLSCAASGFTFSSFSMSWVRQAPGKGLEWVSSISGSSGTTYYADSVKGRFTISRDNSKNTLYLQMNSLRAEDTAVYYCAKPFPYFDYWGQGTLVTVSSGGSGGEIVLTQSPGTLSLSPGERATLSCRASQSVSSSFLAWYQQKPGQAPRLLIYYASSRATGIPDRFSGSGSGTDFTLTISRLEPEDFAVYYCQQTGRIPPTFGQGTKVEIKSSSSGSSSSGSSSSGHIHGCDKNHLREIIGILNEVTGEGTPCTEMDVPNVLTATKNTTESELVCRASKVLRIFYLKHGKTPCLKKNSSVLMELQRLFRAFRCLDSSISCTMNESKSTSLKDFLESLKSIMQMDYS
modifications: Synthetic sequence Amino acid sequence of the L19-murine IL4 conjugate of PCT/EP2014/053998
Q: B4 was tested. Which “therapeutic activity (tumour weight)” value (Fibrosarcoma Wehi-164) did it give?
A: Its value is “shows therapeutic activity”.
